Converted amounts (≈) assume the structure as drawn. “And” between values parts separate entries of the source, which are not always exact repeats. Equal entries are not always repeated.

Here are results for 4 compounds from article PMC8197855, “Peptide/β-Peptoid Hybrids with Activity against Vancomycin-Resistant Enterococci: Influence of Hydrophobicity and Structural Features on Antibacterial and Hemolytic Properties” (International Journal of Molecular Sciences, 2021).

One series concerns E. faecium 1798. Nature of the series: microbe, parasite or virus in culture. The format is cell-based, Enterococcus faecium. The conditions noted are these: 1798, 24 h. As to the method:
(§1) Overnight cultures of the enterococcal isolates were diluted in physiological saline (0.9% NaCl) to reach a turbidity of 0.5 McFarland units (Sensititre® nephelometer and the Sensititre® McFarland Standard). Bacterial suspensions were adjusted to 5 × 10^5 CFU/mL in MHB II or BHI broth containing two-fold dilutions of peptidomimetics or conventional antibiotics in a final volume of 100 µL. The plates were incubated for 24 h at 37 °C without shaking. […] All experiments were performed in three biological replicates.

For another series, the system named is E. faecium 2961. Nature of the series: microbe, parasite or virus in culture. The conditions noted are these: 2961, 24 h. The format is cell-based, Enterococcus faecium. Here is the method:
as §1

The next series relates to E. faecium 3978. Nature of the series: microbe, parasite or virus in culture. The format is cell-based, Enterococcus faecium. The conditions noted are these: 3978, 24 h. As to the method: as §1
The subject of another series is E. faecium D344R. Nature of the series: microbe, parasite or virus in culture. The class given is cell-based, Enterococcus faecium. The conditions noted are these: E. faecium D344R, human clinical isolate; 24 h. Here is the method: as §1
The next series deals with E. faecium ATCC 19434. Nature of the series: microbe, parasite or virus in culture. The class given is cell-based, Enterococcus faecium. The conditions noted are these: ATCC 19434, 24 h. As to the method:
(§2) Overnight cultures of the enterococcal isolates were diluted in physiological saline (0.9% NaCl) to reach a turbidity of 0.5 McFarland units (Sensititre® nephelometer and the Sensititre® McFarland Standard). Bacterial suspensions were adjusted to 5 × 10^5 CFU/mL in MHB II or BHI broth containing two-fold dilutions of peptidomimetics or conventional antibiotics in a final volume of 100 µL. The plates were incubated for 24 h at 37 °C without shaking. […] All experiments were performed in three biological replicates. […]

The next series relates to E. faecalis 38262. Nature of the series: microbe, parasite or virus in culture. The format is cell-based, Enterococcus faecalis. The conditions noted are these: 38262, 24 h. As to the method:
as §1

A further series deals with E. faecalis 39002. Nature of the series: microbe, parasite or virus in culture. The format is cell-based, Enterococcus faecalis. The conditions noted are these: 39002, 24 h. As to the method: as §1
Series [1] is described as follows: Hydrophobicity by analytical RP-HPLC (% MeCN at peak elution). The class given is physicochemical. Here is the method:
Water was filtered by using an Evoqua LaboStar PRO TWF Ultra Pure Water System prior to use in high-performance liquid chromatography (HPLC). The retention time for each peptidomimetic was determined by analytical HPLC using a Phenomenex Luna C18(2) HST column (100 mm × 3 mm; particle size: 2.5 μm; pore size: 100 Å) on a Shimadzu Prominence and Shimadzu Nexera system using an aqueous MeCN gradient with 0.1% trifluoroacetic acid (TFA) added (eluent A: 5:95 MeCN–H2O + 0.1% TFA; eluent B: 95:5 MeCN–H2O + 0.1% TFA); a flow rate of 0.5 mL/min was used. For the elution of peptidomimetics, a linear gradient of 0% to 60% B over 10 min was used with UV detection at λ = 220 nm. The percentage MeCN at peak elution was calculated from the retention time (tR) by using the following formula:%MeCN = [0.95 × 0.6 × tR/10 + 0.05 × (1 − 0.6 × tR/10)] × 100%

A short description of a further series: Hemolytic activity. The format is cell-based, human. The conditions noted are these: human, human red blood cells (washed, 1% suspension), 37 °C, 1% red blood cell suspension. Here is the method: (§3) A suspension of hRBCs (Single-donor human red blood cells—washed; catalogue No. IPLA-W3 from Innovative researchTM) was washed three times with PBS buffer and centrifuged for 5 min at 2500 rpm. A two-fold serial dilution of compounds in PBS buffer was prepared. Plates (conical-bottomed 96-well plates) with 3 replicate wells per dilution, containing 1% red blood cell suspension, were prepared and dosed with the test compound to achieve a final concentration of 400 μg/mL in a total volume of 100 μL. The plates were incubated (37 °C) for 60 min with mild agitation, and then the cells were pelleted by centrifugation at 1500 rpm for 5 min. Then, the supernatants (50 μL) were transferred to a fresh 96-well plate, and then the concentration of hemoglobin was detected by measuring the OD at 405 nm. The OD of cells incubated with 1% SDS achieved 100% hemolysis, while the OD of cells incubated with PBS buffer achieved 0% hemolysis. The concentration tested was 400 μg/mL (only average values are stated in Table 3). The percent hemolysis was calculated by using the formula:Hemolysis(%) = 100 × [(Asample − Aneg.control)/(Apos. control − Aneg.control)]

Another series concerns human red blood cells. Nature of the series: Hemolytic activity. The format is cell-based. The conditions noted are these: 60 min, 37 °C, 1% red blood cell suspension. As to the method: as §3
The test system of series [2] is HepG2 cell line ATCC HB-8065. Nature of the series: Effect on HepG2 cell viability (MTT assay). The class given is cell-based, human. To be noted: 48 h. Here is the method:
The effect of peptidomimetics on mammalian cell viability was determined on the HepG2 cell line ATCC HB-8065. In brief, HepG2 cells were seeded into flat-bottom 96-well plates at a concentration of 5000 cells per well. The cells were incubated for 24 h in a humidified incubator (5% CO2, 37 °C). Subsequently, the medium was removed, and the cells were incubated for 48 h in a humidified incubator (5% CO2, 37 °C) with peptidomimetics in serial dilutions. An MTT assay was then performed; in brief, after incubation with the test compounds, the culture medium was removed and fresh medium with 0.2 mg/mL MTT was then added into each well. After incubation (3 h, 37 °C, 5% CO2), the medium with MTT was removed, and 200 μL dimethyl sulfoxide was added at once to each sample. The absorbance of MTT was measured using the spectrophotometer TECAN Infinite M1000 at 540 nm. The relative viability was calculated by using the formula:ODtreated cells × 100/ODcontrol cells
The IC50 values were calculated using the program Graph Pad Prism 5.0. For all compounds, the test range was 10–1280 μg/mL.
(In general: Tetrazolium assays rely on reduction of a dye to a coloured formazan, in cell work by metabolically active cells.)

For the next series, the system named is E. faecium isolates. The class given is cell-based, Enterococcus faecium. To be noted: 24 h. As to the method: as §1
The test system of another series is E. faecalis ATCC 29212. Nature of the series: microbe, parasite or virus in culture. The class given is cell-based, Enterococcus faecalis. To be noted: ATCC 29212, 24 h. As to the method: as §2
The next series concerns E. faecalis isolates. The format is cell-based, Enterococcus faecalis. The conditions noted are these: 24 h. Here is the method: as §1

In the case of `CC(=O)N[C@@H](CCCCNC(=N)N)C(=O)N(CCC(=O)N[C@@H](CCCCNC(=N)N)C(=O)N(CCC(=O)N[C@@H](CCCCNC(=N)N)C(=O)N(CCC(=O)N[C@@H](CCCCNC(=N)N)C(=O)N(CCC(=O)N[C@@H](CCCCNC(=N)N)C(=O)N(CCC(=O)N[C@@H](CCCCNC(=N)N)C(=O)N(CCC(=O)N[C@@H](CCCCNC(=N)N)C(=O)N(CCC(=O)N[C@@H](CCCCNC(=N)N)C(=O)N(CCC(N)=O)Cc1ccccc1)Cc1ccccc1)Cc1ccccc1)Cc1ccccc1)Cc1ccccc1)Cc1ccccc1)Cc1ccccc1)Cc1ccccc1` [Compound 1, Ac-[hArg-βNPhe]8-NH2], the Minimum inhibitory concentration in the series with E. faecium 1798 is reported as 2 µg/mL (≈ 0.738 µM); in the series on E. faecium 2961, 2 µg/mL (≈ 0.738 µM); in the series with E. faecium 3978, 4 µg/mL (≈ 1.48 µM); in the series with E. faecium D344R, 4 µg/mL (≈ 1.48 µM); in the series on E. faecium ATCC 19434, 8 µg/mL (≈ 2.95 µM); in the series with E. faecalis 38262 it was 16 µg/mL (≈ 5.9 µM). Further, the Minimum inhibitory concentration in the series on E. faecalis 39002 is given as 32 µg/mL (≈ 11.8 µM). Besides, the “Hydrophobicity, Luna C18(2) HST (0–60% B; 10 min), retention converted into % MeCN” value (from here on “Hydrophobicity … retention converted into % MeCN”) in series [1] was determined as 41.8 % MeCN. In addition, the hemolysis at 60 min, 400 µg/mL in “Hemolytic activity” is ~6%. For the same compound, in the series on human red blood cells, the “Hemolysis (at 400 µg/mL)” value came to 6.1%. In addition, the “HepG2 IC50” value in series [2] came out at 9 µg/mL. Further, the “MIC (range or typical value) against E. faecium” value (from here on “MIC (range or typical value)”) with E. faecium isolates was 2 to 8 µg/mL.

With `C[C@@H](c1ccccc1)N(CCC(N)=O)C(=O)[C@H](CCCCN)NC(=O)CCN(C(=O)[C@H](CCCCNC(=N)N)NC(=O)CCN(C(=O)[C@H](CCCCN)NC(=O)CCN(C(=O)[C@H](CCCCNC(=N)N)NC(=O)CCN(C(=O)[C@H](CCCCN)NC(=O)CCN(C(=O)[C@H](CCCCNC(=N)N)NC(=O)CNCCCNCCCCNCCCN)[C@@H](C)c1ccccc1)[C@@H](C)c1ccccc1)[C@@H](C)c1ccccc1)[C@@H](C)c1ccccc1)[C@@H](C)c1ccccc1` [Compound 3, SpermineAc-[hArg-βNspe-Lys-βNspe]3-NH2], the Minimum inhibitory concentration in the series on E. faecium 1798 is 4 to 8 µg/mL; in the series with E. faecium 2961 it was 8 µg/mL (≈ 3.63 µM); in the series with E. faecium 3978, 8 µg/mL (≈ 3.63 µM); in the series with E. faecium D344R, 4 to 8 µg/mL; in the series with E. faecium ATCC 19434 it was 16 to 32 µg/mL; in the series with E. faecalis ATCC 29212, >32 µg/mL. For the same compound, the “Hydrophobicity … retention converted into % MeCN” value in series [1] was 40 % MeCN and 40.2 % MeCN. The compound further displayed a hemolysis at 60 min, 400 µg/mL in “Hemolytic activity” of 0.6%. For the same compound, in series [2], the “HepG2 IC50” value came to 41 µg/mL. Further, the “MIC (range or typical value)” value in the series with E. faecium isolates fell in the range of 4 to 8 µg/mL.

`C[C@@H](c1ccccc1)N(CCC(N)=O)C(=O)[C@H](CCCCN)NC(=O)CCN(C(=O)[C@H](CCCCNC(=N)N)NC(=O)CCN(C(=O)[C@H](CCCCN)NC(=O)CCN(C(=O)[C@H](CCCCNC(=N)N)NC(=O)CCN(C(=O)[C@H](CCCCN)NC(=O)CCN(C(=O)[C@H](CCCCNC(=N)N)NC(=O)CCN(C(=O)[C@H](CCCCN)NC(=O)CCN(C(=O)[C@@H](N)CCCCNC(=N)N)[C@@H](C)c1ccccc1)[C@@H](C)c1ccccc1)[C@@H](C)c1ccccc1)[C@@H](C)c1ccccc1)[C@@H](C)c1ccccc1)[C@@H](C)c1ccccc1)[C@@H](C)c1ccccc1` [Compound 4, H-[hArg-βNspe-Lys-βNspe]4-NH2]: the Minimum inhibitory concentration in the series on E. faecium 1798 is 4 µg/mL (≈ 1.53 µM); in the series with E. faecium 2961, 4 µg/mL (≈ 1.53 µM); in the series on E. faecium 3978 it was 4 to 8 µg/mL; in the series with E. faecium D344R, 4 µg/mL (≈ 1.53 µM); with E. faecium ATCC 19434, 8 µg/mL (≈ 3.06 µM); in the series with E. faecalis ATCC 29212, >32 µg/mL. For the same compound, the Minimum inhibitory concentration is recorded as 16 µg/mL (≈ 6.12 µM) in the series on E. faecalis 38262 and 32 µg/mL (≈ 12.2 µM) in the series with E. faecalis 39002. Moreover, the “Hydrophobicity … retention converted into % MeCN” value in series [1] is on record as 43.6 % MeCN. The hemolysis at 60 min, 400 µg/mL in “Hemolytic activity” worked out at 2.6%. In addition, the “HepG2 IC50” value in series [2] amounted to 42 µg/mL. In addition, in the series with E. faecium isolates, the “MIC (range or typical value)” value was 4 to 8 µg/mL.

Take `C[C@@H](c1ccccc1)N(CCC(=O)N[C@@H](CCCCN)C(=O)N(CCC(=O)N[C@@H](CCCCNC(=N)N)C(=O)N(CCC(=O)N[C@@H](CCCCN)C(=O)N(CCC(=O)N[C@@H](CCCCNC(=N)N)C(=O)N(CCC(=O)N[C@@H](CCCCN)C(=O)N(CCC(N)=O)[C@@H](C)c1ccccc1)[C@@H](C)c1ccccc1)[C@@H](C)c1ccccc1)[C@@H](C)c1ccccc1)[C@@H](C)c1ccccc1)C(=O)[C@H](CCCCNC(=N)N)NC(=O)C=Cc1ccccc1` [Compound 6, Cinn-[hArg-βNspe-Lys-βNspe]3-NH2]: the Minimum inhibitory concentration with E. faecium 1798 was 4 µg/mL (≈ 1.91 µM); with E. faecium 2961 it was 4 µg/mL (≈ 1.91 µM); in the series on E. faecium 3978, 4 µg/mL (≈ 1.91 µM); with E. faecium D344R it was 4 µg/mL (≈ 1.91 µM); in the series with E. faecium ATCC 19434, 8 µg/mL (≈ 3.82 µM); in the series with E. faecalis ATCC 29212, 16 µg/mL (≈ 7.64 µM). For the same compound, the Minimum inhibitory concentration in the series with E. faecalis 38262 and in the series with E. faecalis 39002 was 16 µg/mL (≈ 7.64 µM) each time. The “Hydrophobicity … retention converted into % MeCN” value in series [1] is given as 45.9 % MeCN. The hemolysis at 60 min, 400 µg/mL in the series “Hemolytic activity” came to 15.7%. In series [2], the “HepG2 IC50” value amounted to 42 µg/mL. The “MIC (range or typical value)” value in the series on E. faecium isolates is 4 to 8 µg/mL. For the same compound, in the series on E. faecalis isolates, the “MIC (range) against E. faecalis” value was 16 µg/mL (≈ 7.64 µM).
